6 compounds from patent US20250145665A1, “MACROCYCLIC PEPTIDES USEFUL AS MODULATORS OF TNF ALPHA” (Bristol-Myers Squibb Company, priority 2023, published 2025) can be followed below.

Starred links: 1 amine or outer side, 2 acyl side, 3 side chain; linkers in the order of their positions; H or OH if unused. Positions of bridges follow the written chain, without caps; N, C: chain ends. Non-standard residues stand in square brackets, D forms with d. Residues, ends and D or L forms follow the SMILES beside them. *: point of attachment. Bip(4'-(3-HOOC-benzamido)) = N[C@@H](Cc1ccc(-c2ccc(NC(=O)c3cccc(C(=O)O)c3)cc2)cc1)C(=O)O; X56 = O=C(O)COc1cccc(NC(=O)c2ccc(-c3ccc(C[C@H](N[*:1])C(=O)[*:2])cc3)cc2)c1; Bip(4'-NH) = O=C([C@H](Cc1ccc(-c2ccc(N[*:3])cc2)cc1)N[*:1])[*:2]; X36 = N=C(NCCC[C@@H](N[*:1])C(=O)[*:2])NCc1cccc(C(=O)O)c1; Ala(morpholin-4-yl) = N[C@@H](CN1CCOCC1)C(=O)O; Benzoyl(3-OCH2COOH) = O=C(O)COc1cccc(C(=O)*)c1; Benzoyl(4-OCH2COOH) = O=C(O)COc1ccc(C(=O)*)cc1; Phe(3-CONH2) = NC(=O)c1cccc(C[C@H](N)C(=O)O)c1; Bip = N[C@@H](Cc1ccc(-c2ccccc2)cc1)C(=O)O; Cha = N[C@@H](CC1CCCCC1)C(=O)O; Chg = N[C@H](C(=O)O)C1CCCCC1; Sar = CNCC(=O)O

Sequence of TNFα (P01375 77-233 limits assumed): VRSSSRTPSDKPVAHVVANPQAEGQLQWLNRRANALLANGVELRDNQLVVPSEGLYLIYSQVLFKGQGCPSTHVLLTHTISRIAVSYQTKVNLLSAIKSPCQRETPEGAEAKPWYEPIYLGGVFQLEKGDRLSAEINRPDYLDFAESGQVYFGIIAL

This assay addresses TNFα (Homo sapiens, UniProt P01375). The assay is described as follows: TNF-Induced HEK-Blue Assay. In kind it is cell-based. As to conditions: HEK-Blue-CD40L cells, NF-kB-driven secreted alkaline phosphatase reporter; TNFα 0.5 ng/ml; 18 h; read-out: TNF induced HEK-Blue assay IC50 value.
Consider `CC[C@H](C)[C@@H]1NC(=O)[C@@H](CCCNC(=N)N)NC(=O)[C@H](CC(=O)O)NC(=O)[C@H](Cc2cnc[nH]2)NC(=O)CN(C)C(=O)[C@H](Cc2ccc(-c3ccc(C(=O)Nc4cccc(OCC(=O)O)c4)cc3)cc2)NC(=O)[C@H](Cc2ccc(-c3ccccc3)cc2)NC(=O)[C@H](Cc2cccc(C(N)=O)c2)NC(=O)CSC[C@@H](C(=O)NCC(N)=O)NC(=O)[C@H](CC(C)C)NC(=O)[C@H](Cc2cnc[nH]2)NC(=O)[C@H](C(C)C)NC(=O)[C@@H]2CCCN2C1=O` [Example 631] ({CH2CO}-[Phe(3-CONH2)][Bip][X56][Sar]HD[dR]IPVHLCG-NH2; thioether N-13), for which the IC50 is 50 to 200 nM.

As to `CC(C)C[C@@H]1NC(=O)[C@H](CCCNC(=N)N)NC(=O)[C@H](C(C)C)NC(=O)[C@@H]2CCCN2C(=O)[C@H](C(C)C)NC(=O)[C@@H](CCCNC(=N)NCc2cccc(C(=O)O)c2)NC(=O)[C@H](CC(=O)O)NC(=O)[C@@H]2CCCN2C(=O)CN(C)C(=O)[C@H](Cc2ccc(-c3ccc(NC(=O)c4cccc(OCC(=O)O)c4)cc3)cc2)NC(=O)[C@H](Cc2ccc(-c3ccccc3)cc2)NC(=O)[C@H](CN2CCOCC2)NC(=O)CSC[C@@H](C(=O)NCC(N)=O)NC1=O` [Example 544] ({CH2CO}-[Ala(morpholin-4-yl)][Bip][Bip(4'-NH)](Benzoyl(3-OCH2COOH))[Sar]PD[X36]VPVRLCG-NH2; thioether N-13), the IC50 fell in the range of 200 to 2000 nM.

With `CC(C)C[C@@H]1NC(=O)[C@H](CCC(N)=O)NC(=O)[C@H](C(C)C)NC(=O)[C@@H]2CCCN2C(=O)[C@H](C(C)C)NC(=O)[C@H](CCCNC(=N)N)NC(=O)[C@H](CC(=O)O)NC(=O)[C@@H]2CCCN2C(=O)CN(C)C(=O)[C@H](Cc2ccc(-c3ccccc3)cc2)NC(=O)[C@H](Cc2ccc(-c3ccccc3)cc2)NC(=O)[C@H](Cc2ccccc2)NC(=O)CSC[C@@H](C(=O)NCC(N)=O)NC1=O` [Example 18] ({CH2CO}-F[Bip][Bip][Sar]PDRVPVQLCG-NH2; thioether N-13), the IC50 fell in the range of 200 to 2000 nM.

As to `CC(C)C[C@@H]1NC(=O)[C@H](Cc2cnc[nH]2)NC(=O)[C@H](C(C)C)NC(=O)[C@@H]2CCCN2C(=O)[C@H](C(C)C)NC(=O)[C@@H](CCCNC(=N)N)NC(=O)[C@H](CC(=O)O)NC(=O)[C@@H]2CCCN2C(=O)CN(C)C(=O)[C@H](Cc2ccc(-c3ccc(NC(=O)c4ccc(OCC(=O)O)cc4)cc3)cc2)NC(=O)[C@H](Cc2ccc(-c3ccccc3)cc2)NC(=O)[C@H](CC2CCCCC2)NC(=O)CSC[C@@H](C(=O)NCC(N)=O)NC1=O` [Example 493] ({CH2CO}-[Cha][Bip][Bip(4'-NH)](Benzoyl(4-OCH2COOH))[Sar]PD[dR]VPVHLCG-NH2; thioether N-13), the IC50 fell in the range of 50 to 200 nM.

As for `CC(C)C[C@@H]1NC(=O)[C@H](Cc2ccc(O)cc2)NC(=O)[C@H](C(C)C)NC(=O)[C@@H]2CCCN2C(=O)[C@H](C(C)C)NC(=O)[C@H](CCCNC(=N)N)NC(=O)[C@H](CC(=O)O)NC(=O)[C@@H]2CCCN2C(=O)CN(C)C(=O)[C@H](Cc2ccc(-c3ccccc3)cc2)NC(=O)[C@H](Cc2ccc(-c3ccccc3)cc2)NC(=O)[C@H](CN2CCOCC2)NC(=O)CSC[C@@H](C(=O)NCC(N)=O)NC1=O` [Example 49] ({CH2CO}-[Ala(morpholin-4-yl)][Bip][Bip][Sar]PDRVPVYLCG-NH2; thioether N-13), the IC50 fell in the range of 50 to 200 nM.

As to `CC(C)C[C@@H]1NC(=O)[C@H](Cc2c[nH]cn2)NC(=O)[C@H](C2CCCCC2)NC(=O)[C@@H]2CCCN2C(=O)[C@H](C(C)C)NC(=O)[C@@H](CCCNC(=N)N)NC(=O)[C@H](CC(=O)O)NC(=O)[C@H](Cc2cnc[nH]2)NC(=O)CN(C)C(=O)[C@H](Cc2ccc(-c3ccc(NC(=O)c4cccc(C(=O)O)c4)cc3)cc2)NC(=O)[C@H](Cc2ccc(-c3ccccc3)cc2)NC(=O)[C@H](CC2CCCCC2)NC(=O)CSC[C@@H](C(=O)NCC(N)=O)NC1=O` [Example 514] ({CH2CO}-[Cha][Bip][Bip(4'-(3-HOOC-benzamido))][Sar]HD[dR]VP[Chg]HLCG-NH2; thioether N-13), the IC50 is less than 50 nM.
